Reference: PubChem BioAssay (NCI)
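These data come from cells grown in 96-well plates and exposed to compound for 48 hours at five concentrations. TGI: concentration producing complete growth inhibition.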

Columns and labels:
Assay in all cases: NCI tumour cell line growth inhibition, 48 h
A549 NSCLC = system: A549 NSCLC
ACHN renal = system: ACHN renal
CAKI-1 renal = system: CAKI-1 renal
CCRF-CEM leukemia = system: CCRF-CEM leukemia
DLD-1 colon = system: DLD-1 colon
DMS 114 small cell lung = system: DMS 114 small cell lung
DMS 273 small cell lung = system: DMS 273 small cell lung
EKVX NSCLC = system: EKVX NSCLC
HCC-2998 colon = system: HCC-2998 colon
HCT-116 colon = system: HCT-116 colon
HCT-15 colon = system: HCT-15 colon
HL-60(TB) leukemia = system: HL-60(TB) leukemia
HOP-18 NSCLC = system: HOP-18 NSCLC
HOP-62 NSCLC = system: HOP-62 NSCLC
HOP-92 NSCLC = system: HOP-92 NSCLC
HT29 colon = system: HT29 colon
IGROV1 ovarian = system: IGROV1 ovarian
K-562 leukemia = system: K-562 leukemia
KM20L2 colon = system: KM20L2 colon
LOX IMVI melanoma = system: LOX IMVI melanoma
LXFL 529 NSCLC = system: LXFL 529 NSCLC
M14 melanoma = system: M14 melanoma
M19-MEL melanoma = system: M19-MEL melanoma
MALME-3M melanoma = system: MALME-3M melanoma
MOLT-4 leukemia = system: MOLT-4 leukemia
NCI-H226 lung = system: NCI-H226 lung
NCI-H23 lung = system: NCI-H23 lung
NCI-H460 lung = system: NCI-H460 lung
NCI-H522 lung = system: NCI-H522 lung
OVCAR-3 ovarian = system: OVCAR-3 ovarian
OVCAR-4 ovarian = system: OVCAR-4 ovarian
OVCAR-5 ovarian = system: OVCAR-5 ovarian
OVCAR-8 ovarian = system: OVCAR-8 ovarian
RPMI-8226 leukemia = system: RPMI-8226 leukemia
RXF 393 renal = system: RXF 393 renal
RXF-631 renal = system: RXF-631 renal
SF-268 CNS = system: SF-268 CNS
SF-295 CNS = system: SF-295 CNS
SF-539 CNS = system: SF-539 CNS
SK-MEL-2 melanoma = system: SK-MEL-2 melanoma
SK-MEL-5 melanoma = system: SK-MEL-5 melanoma
SK-OV-3 ovarian = system: SK-OV-3 ovarian
SN12C renal = system: SN12C renal
SNB-19 CNS = system: SNB-19 CNS
SNB-75 CNS = system: SNB-75 CNS
SNB-78 CNS = system: SNB-78 CNS
SR leukemia = system: SR leukemia
SW-620 colon = system: SW-620 colon
TK-10 renal = system: TK-10 renal
U251 CNS = system: U251 CNS
UACC-257 melanoma = system: UACC-257 melanoma
UACC-62 melanoma = system: UACC-62 melanoma
UO-31 renal = system: UO-31 renal
XF 498 CNS = system: XF 498 CNS

Measured: TGI

COc1cc2c(cc1OC)C1Cc3sccc3CN1CC2 (centres undefined)
> 100 µM: all assays above
